Consider 40 compounds from the Kinase Knowledgebase extract (Sharma et al. 2016).

Bounds are passed on as bounds.

EGFR (human), sequence (P00533 whole entry, looked up): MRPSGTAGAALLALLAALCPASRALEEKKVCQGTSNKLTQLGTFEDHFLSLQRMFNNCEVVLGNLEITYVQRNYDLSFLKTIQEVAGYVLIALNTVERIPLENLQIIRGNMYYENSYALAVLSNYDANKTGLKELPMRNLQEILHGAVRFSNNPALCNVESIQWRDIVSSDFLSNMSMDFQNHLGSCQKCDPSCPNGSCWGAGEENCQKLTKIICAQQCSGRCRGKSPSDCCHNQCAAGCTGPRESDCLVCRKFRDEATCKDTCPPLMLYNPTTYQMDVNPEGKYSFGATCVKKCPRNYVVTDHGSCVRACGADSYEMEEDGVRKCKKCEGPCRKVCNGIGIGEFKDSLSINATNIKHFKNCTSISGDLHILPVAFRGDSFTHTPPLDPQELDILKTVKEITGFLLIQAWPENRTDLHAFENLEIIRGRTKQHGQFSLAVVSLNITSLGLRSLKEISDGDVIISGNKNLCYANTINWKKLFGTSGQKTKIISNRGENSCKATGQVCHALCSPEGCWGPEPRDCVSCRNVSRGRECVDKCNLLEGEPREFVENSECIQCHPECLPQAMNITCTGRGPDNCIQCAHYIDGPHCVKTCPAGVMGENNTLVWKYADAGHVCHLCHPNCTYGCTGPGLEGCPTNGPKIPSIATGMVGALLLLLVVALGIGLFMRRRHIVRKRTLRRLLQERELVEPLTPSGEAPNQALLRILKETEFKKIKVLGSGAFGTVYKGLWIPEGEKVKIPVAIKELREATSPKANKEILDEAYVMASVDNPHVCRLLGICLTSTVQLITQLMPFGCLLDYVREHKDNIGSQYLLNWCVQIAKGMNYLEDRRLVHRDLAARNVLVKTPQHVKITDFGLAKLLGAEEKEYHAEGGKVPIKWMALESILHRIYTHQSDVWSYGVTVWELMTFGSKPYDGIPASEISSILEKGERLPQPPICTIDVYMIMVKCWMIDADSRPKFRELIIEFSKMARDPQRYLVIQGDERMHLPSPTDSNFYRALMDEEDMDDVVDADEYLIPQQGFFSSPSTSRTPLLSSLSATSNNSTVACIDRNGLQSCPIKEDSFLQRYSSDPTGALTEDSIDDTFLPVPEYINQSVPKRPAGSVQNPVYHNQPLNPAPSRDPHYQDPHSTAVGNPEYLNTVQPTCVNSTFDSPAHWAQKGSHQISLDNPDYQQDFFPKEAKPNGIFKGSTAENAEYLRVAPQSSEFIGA

The assay addresses EGFR (human) (UniProt P00533).
Turning to `C#Cc1cccc(Nc2ncnc3cc(OCC)c(C#CC(C)(C)N(C)C4CCN(C)CC4)cc23)c1`, the IC50 (commonly the concentration that gives 50% inhibition) worked out at 3.2 nM. In other words, the single-digit nanomolar range.

As for `CCOCC(C#Cc1cc2ncnc(Nc3ccc(F)c(Cl)c3)c2cc1NS(C)(=O)=O)(COCC)N1CCN(C)CC1`, the IC50 was found to be 10.3 nM.

`CCOc1cc2ncnc(Nc3ccc(F)c(Cl)c3)c2cc1C#CC(C)(C)N(C)C1CCN(C)CC1` displayed an IC50 of 3.8 nM.

Take `CC(=O)N1CCN(C(C)(C)C#Cc2cc3ncnc(Nc4ccc(F)c(Cl)c4)c3cc2NS(C)(=O)=O)CC1`: the IC50 amounted to 2.1 nM.

The compound `CN1CCN(CC#Cc2cc3ncnc(Nc4ccc(F)c(Cl)c4)c3cc2NS(C)(=O)=O)CC1` registered an IC50 below 1 nM.

`C=CC(=O)Nc1cc2c(Nc3ccc(F)c(Cl)c3)ncnc2cc1C#CC(C)(C)N1CCC(=O)CC1` came in with a half-maximal inhibitory concentration (IC50) of 1.8 nM.

Regarding `CN1CCCN(C(C)(C)C#Cc2cc3ncnc(Nc4ccc(F)c(Cl)c4)c3cc2NS(C)(=O)=O)CC1`, the IC50 was 1.9 nM.

With `CS(=O)(=O)Nc1cc2c(Nc3ccc(F)c(Cl)c3)ncnc2cc1C#CCCN1CCOCC1`, the IC50 was below 1 nM.

Regarding `CCOCC(C#Cc1cc2c(Nc3ccc(F)c(Cl)c3)ncnc2cc1OCC)(COCC)N1CCN(C)CC1`, the half-inhibitory concentration (IC50) is above 10 nM.

In turn, `C=CC(=O)Nc1cc2c(Nc3ccc(F)c(Cl)c3)ncnc2cc1C#CC(C)(C)N(C)CCN(C)C` registered an IC50 of 2.4 nM.

Compound `COc1cc2ncnc(Nc3cccc(C(C)=O)c3)c2cc1C#CC(C)(C)N1CCN(C)CC1` came in with an IC50 above 10 nM.

`C=CC(=O)Nc1cc2c(Nc3ccc(F)c(Cl)c3)ncnc2cc1C#CC1(N2CCN(C)CC2)CCCCC1` yielded an IC50 of 2.4 nM.

In the case of `C=CC(=O)Nc1cc2c(Nc3ccc(F)c(Cl)c3)ncnc2cc1C#CC(C)(C)N1CCCN(C)CC1`, the half-inhibitory concentration (IC50) is 3.2 nM.

For the compound `C=CC(=O)Nc1cc2c(Nc3ccc(F)c(Cl)c3)ncnc2cc1C#CC(C)(C)N1CCN(CCOC)CC1`, the 50% inhibitory concentration (IC50) came out at 1.5 nM.

Take `C=CC(=O)Nc1cc2c(Nc3ccc(F)c(Cl)c3)ncnc2cc1C#CC(CC)(CC)N1CCN(C)CC1`: the half-inhibitory concentration (IC50) was determined as 2.1 nM.

In turn, `CN1CCN(CCC#Cc2cc3ncnc(Nc4ccc(F)c(Cl)c4)c3cc2NS(C)(=O)=O)CC1` yielded an IC50 below 1 nM.

Turning to `COCCN(C)C(C)(C)C#Cc1cc2ncnc(Nc3ccc(F)c(Cl)c3)c2cc1NS(C)(=O)=O`, the half-inhibitory concentration (IC50) came out at 3.1 nM.

`CC(C)(C#Cc1cc2ncnc(Nc3ccc(F)c(Cl)c3)c2cc1NS(C)(=O)=O)N1CCN(S(C)(=O)=O)CC1`: the IC50 stood at 2.1 nM.

With `COCCN(CCOC)C(C)(C)C#Cc1cc2ncnc(Nc3ccc(F)c(Cl)c3)c2cc1NS(C)(=O)=O`, the IC50 is 6.7 nM.

`COC1CCN(C(C)(C)C#Cc2cc3ncnc(Nc4ccc(F)c(Cl)c4)c3cc2NS(C)(=O)=O)CC1` had a half-maximal inhibitory concentration (IC50) of 5.3 nM.

In the case of `C=CC(=O)Nc1cc2c(Nc3ccc(F)c(Cl)c3)ncnc2cc1C#CC(C)(C)N1CCC(OC)CC1`, the half-maximal inhibitory concentration (IC50) is 4.6 nM.

`C=CC(=O)Nc1cc2c(Nc3ccc(F)c(Cl)c3)ncnc2cc1C#CCN1CCN(C)CC1` registered a 50% inhibitory concentration (IC50) below 1 nM.

Consider `C=CC(=O)Nc1cc2c(Nc3ccc(F)c(Cl)c3)ncnc2cc1C#CC(C)(C)N(CCOC)CCOC`, for which the IC50 is 3.5 nM.

Turning to `C=CC(=O)Nc1cc2c(Nc3ccc(F)c(Cl)c3)ncnc2cc1C#CC(C)(C)N1CCN(CCC#N)CC1`, the IC50 was 2.9 nM.

Regarding `C#Cc1cccc(Nc2ncnc3cc(OCC)c(C#CC(C)(C)N4CCN(C(C)=O)CC4)cc23)c1`, the IC50 was above 10 nM.

Take `C=CC(=O)Nc1cc2c(Nc3ccc(F)c(Cl)c3)ncnc2cc1C#CC(C)(C)N1CCN(C)CC1`: the IC50 came out at 1.8 nM.

In turn, `C=CC(=O)Nc1cc2c(Nc3ccc(F)c(Cl)c3)ncnc2cc1C#CC(COCC)(COCC)N1CCN(C)CC1` returned an IC50 of 4.4 nM.

The compound `CN(C)CCN(C)C(C)(C)C#Cc1cc2ncnc(Nc3ccc(F)c(Cl)c3)c2cc1NS(C)(=O)=O` registered a half-maximal inhibitory concentration (IC50) of 2.9 nM.

`C=CC(=O)Nc1cc2c(Nc3ccc(F)c(Cl)c3)ncnc2cc1C#CC(C)(C)N1CCN(C(C)=O)CC1` yielded a 50% inhibitory concentration (IC50) below 1 nM.

Take `C=CC(=O)Nc1cc2c(Nc3ccc(F)c(Cl)c3)ncnc2cc1C#CC(C)(C)N(CC)CCC(=O)OC`: the IC50 is 2.6 nM.

In the case of `C=CC(=O)Nc1cc2c(Nc3ccc(F)c(Cl)c3)ncnc2cc1C#CC(C)(C)N1CCC(O)CC1`, the IC50 worked out at 1.9 nM.

The compound `C=CC(=O)Nc1cc2c(Nc3ccc(F)c(Cl)c3)ncnc2cc1C#CC(C)(C)N1CCN(S(C)(=O)=O)CC1` gave a half-maximal inhibitory concentration (IC50) of 1.9 nM. This counts as single-digit nanomolar.

For the compound `C=CC(=O)Nc1cc2c(Nc3ccc(F)c(Cl)c3)ncnc2cc1C#CC(C)(C)N1CCN(CC)CC1`, the IC50 stood at 3.3 nM.

`CCOc1cc2ncnc(Nc3ccc(F)c(Cl)c3)c2cc1C#CCCN1CCN(C)CC1` returned an IC50 of 1.2 nM.

`C=CC(=O)Nc1cc2c(Nc3ccc(F)c(Cl)c3)ncnc2cc1C#CC(C)(C)N(C)CCOC`: the 50% inhibitory concentration (IC50) turned out to be 3.7 nM.

The compound `C=CC(=O)Nc1cc2c(Nc3ccc(F)c(Cl)c3)ncnc2cc1/C=C/CCN1CCN(C)CC1` had a concentration for half-maximal inhibition (IC50) below 1 nM.

For `C=CC(=O)Nc1cc2c(Nc3ccc(F)c(Cl)c3)ncnc2cc1C#CCN1CCOCC1`, the IC50 is below 1 nM.

For `CC(C)(C#Cc1cc2ncnc(Nc3ccc(F)c(Cl)c3)c2cc1NS(C)(=O)=O)N1CCC(=O)CC1`, the 50% inhibitory concentration (IC50) was 2.1 nM.

In turn, `C=CC(=O)Nc1cc2c(Nc3ccc(F)c(Cl)c3)ncnc2cc1C#CC(C)(C)N1CCCC1` had a concentration for half-maximal inhibition (IC50) of 2.6 nM.

Regarding `C=CC(=O)Nc1cc2c(Nc3ccc(F)c(Cl)c3)ncnc2cc1C#CCCN1CCOCC1`, the concentration for half-maximal inhibition (IC50) is below 1 nM.
